The target of experiment [1] is T1, PAL from Petroselinum crispum (PcPAL) (Petroselinum crispum, UniProt P24481). The experiment in a line: Steady-state inhibition kinetics of PcPAL-catalyzed deamination of L-Phe. In kind it is biochemical.
The next experiment deals with Y110F mutant of PcPAL (Petroselinum crispum, UniProt P24481, Y110F). Nature of the experiment: Isothermal titration calorimetry with Y110F-PcPAL. The experiment is classed as binding. The note with it: for Kd: PcPAL_Y110F K d, ITC, pH 8.0, 30 °C.
The test system of experiment [2] is PAL. The note with it: cited from earlier work.
In experiment [3] the test system is PAL. As to conditions: cited from earlier work. This is another data set of the same source.
Experiment [4] deals with T1, PAL from Petroselinum crispum (PcPAL). The note with it: with PcPAL; cited from earlier work.
The next experiment relates to Pseudomonas putida HAL. The note with it: 9 mM, incubation for 120 min in the presence of oxygen; cited from earlier work.

A value given as a limit tells only on which side of the number the result lay.

Regarding `NC(C1(c2ccccc2)CC1)P(=O)(O)O.O` (racemic) [(±)‐6, 1-Amino-1-(1-phenylcyclopropyl)methyl-phosphonic acid hydrate], the Ki (usually a dissociation constant, usually derived from enzyme kinetics or from competition with a known ligand) in experiment [1] is over 1 mM. The Type of inhibition entry in experiment [1] (best fitting inhibition model to the experimental data) is given as “No inh”. Also, the “Inhibition with PcPAL” value in experiment [1] (up to 1 mM concentration) was “no measurable inhibition”.
On to `N[C@H](Cc1ccccc1)C(=O)O` [(R)‐1, D‐phenylalanine], for which the Kd (in general, a measure of binding affinity in units of concentration) on Y110F mutant of PcPAL stood at 29.1 µM. The same compound gave a ΔΔG on Y110F mutant of PcPAL (ΔΔG=ΔG wt−ΔG Y110F, contribution of the hydroxy group of Tyr110) of -0.5 kcal/mol. The Type of inhibition result in the experiment on PAL [2] was “competitive inhibitor”.
At Y110F mutant of PcPAL, `N[C@@H](Cc1ccccc1)C(=O)O` [(S)‐1, L‐phenylalanine] displayed a Kd of 23 µM. Moreover, in the experiment on PAL [3], the “Rate of ammonia elimination relative to D-phenylalanine” value is reported as “more than 4500 times”.
Consider `NC1(P(=O)(O)O)Cc2ccccc2C1` [AIP, 2‐aminoindan‐2‐phosphonic acid], for which the Slow binding behavior result in experiment [4] is “one‐step slow binding mechanism”. Moreover, at PAL [2], the Ki is 25 nM.
Regarding `NO[C@@H](Cc1ccccc1)C(=O)O` [AOPP, (S)‐2‐aminooxy‐3‐phenylpropanoic acid], the Ki on PAL [2] was 0.38 nM.
With `N[C@@H](CCS)C(=O)O` [L‐homocysteine], the “Inhibition of HAL” value in the experiment with Pseudomonas putida HAL was “irreversibly inhibited”.

(Values after PMC5573973 (Advanced Synthesis & Catalysis, 2017).)
